Data published in patent US20240245711A1, “A 19-NOR C3,3-DISUBSTITUTED C21-N-PYRAZOLYL STEROID FOR THE TREATMENT OF MAJOR DEPRESSIVE DISORDER” (Sage Therapeutics, Inc., priority 2021, published 2024).
Values joined by “and” are separate entries in the source; they are usually repeats but may differ in a detail not shown here. Equal values may be shown once.

Tested on: adult subjects with Major Depressive Disorder
Experiment: Phase 3 open-label 1-year study: HAM-D total score, response and remission
Type: in vivo, human
From the text: Secondary Objective: To assess the need for re-treatment with Compound (1) following initial treatment in adults with MDD currently experiencing an MDE over a 1-year period, and to assess the response of initial treatment and re-treatment(s) with Compound (1) following an initial 2-week treatment period in adults with MDD currently experiencing an MDE over a 1-year period.
Secondary Endpoints: The need for re-treatment with Compound (1) as assessed by: time to first re-treatment (Kaplan-Meier curves), number of subjects achieving the requirements for re-treatment, number of re-treatment cycles for each subject, the response of initial treatment and/or re-treatment as assessed by: change from baseline in the 17-item Hamilton Rating Scale for Depression (HAM-D) total score at the end of each 14-day treatment (initial and/or re-treatment) period, HAM-D response at the end of each 14-day treatment (initial and/or re-treatment) period, defined as a ≥50% reduction in HAM-D score from baseline, HAM-D remission at the end of each 14-day treatment (initial and/or re-treatment) period, defined as HAM-D total score≤7, Clinical Global Impression-Improvement (CGI-I) response, defined as “much improved” or “very much improved”, at the end of each 14-day treatment (initial and/or re-treatment) period, change from baseline in Clinical Global Impression-Severity (CGI-S) score at the end of each 14-day treatment (initial and/or re-treatment) period.
Study Population: Subjects were 18-75 years old, diagnosed with major depressive disorder (MDD) with a MADRS total score of ≥28 and a HAM-D total score of ≥20 at Screening and Day 1 (prior to dosing).
Treatment Groups: The 30 mg and 50 mg dose groups were separated by time of enrollment. The study is comprised of two cohorts: one with Compound (1) 30 mg as a starting dose (30 mg Cohort: n=725), an initial cohort with Compound (1) 50 mg as a starting dose (50 mg Cohort: n=199). A patient receiving Compound (1) 30 mg could be dose reduced to 20 mg and patients receiving Compound (1) 50 mg could be dose reduced to 40 mg (based on tolerability). In all cohorts, Compound (1) is self-administered by patients as an oral therapy once nightly with food for 14 days.
Eligible subjects were given Compound (1)—to be taken at home in the evening with meal.
The cohorts pertaining to the different doses that the subjects received were defined as following: • 50 mg cohort: This cohort includes subjects who have initiated treatment with 50 mg and received re-treatment with 50 mg only. • 30 mg cohort: This cohort includes subjects who have initiated treatment with 30 mg regardless of the dose they have received in re-treatments. • Low dose cohort: This cohort includes subjects who have initiated treatment with 30 mg and received re-treatment with 30 mg only. • Dose switch cohort: This cohort includes subjects who have received initial treatment with 30 mg and at least one subsequent re-treatment with 50 mg. • Study Period X: starts on the date of the first dose of Compound (1) in cycle X and goes up to one day prior to the first dose of the next cycle. In some embodiments, X is any number from 1 to 5. • Treatment Period X: starts on the date of the first dose of Compound (1) in cycle X and goes up to one day after the last dose in cycle X. In some embodiments, X is any number from 1 to 5. • Treatment Cycle X: starts on the date of the first dose of Compound (1) in cycle X and goes up to 14 days after the last dose in cycle X. The treatment cycles may be denoted as C1-C5. • Observation period X: starts the day after Treatment Cycle X ends and goes up to one day prior to the start of next treatment cycle. In some embodiments, X is any number from 1 to 5.
Analysis Sets: The safety set was defined as all subjects who were administered study drug. The period-specific safety set includes subjects in the safety set who were administered study drug in the corresponding treatment cycle. […]

[1] = baseline HAM-D score ≥24, Study Period 1, 50 mg Cohort (N = 127), Day 28
[2] = baseline HAM-D score ≥24, Study Period 1, 50 mg Cohort (N = 127), Day 70
[3] = baseline HAM-D score ≥24, Study Period 1, 50 mg Cohort (N = 127), Day 126
[4] = baseline HAM-D score ≥26, Study Period 1, 30 mg Cohort (N = 327), Day 8
[5] = baseline HAM-D score ≥26, Study Period 1, 30 mg Cohort (N = 327), Day 15
[6] = baseline HAM-D score ≥26, Study Period 1, 30 mg Cohort (N = 327), Day 28
[7] = baseline HAM-D score ≥26, Study Period 1, 30 mg Cohort (N = 327), Day 70
[8] = baseline HAM-D score ≥26, Study Period 1, 30 mg Cohort (N = 327), Day 126
[9] = baseline HAM-D score ≥26, Study Period 1, 50 mg Cohort (N = 85), Day 8
[10] = baseline HAM-D score ≥26, Study Period 1, 50 mg Cohort (N = 85), Day 15
[11] = baseline HAM-D score ≥26, Study Period 1, 50 mg Cohort (N = 85), Day 28
[12] = baseline HAM-D score ≥26, Study Period 1, 50 mg Cohort (N = 85), Day 70
[13] = baseline HAM-D score ≥26, Study Period 1, 50 mg Cohort (N = 85), Day 126

C[C@@]1(O)CC[C@H]2[C@H](CC[C@@H]3[C@@H]2CC[C@]2(C)[C@@H](C(=O)Cn4cc(C#N)cn4)CC[C@@H]32)C1 [Compound (1), 1-(2-((3R,5R,8R,9R,10S,13S,14S,17S)-3-hydroxy-3,13-dimethylhexadecahydro-1H-cyclopenta[a]phenanthren-17-yl)-2-oxoethyl)-1H-pyrazole-4-carbonitrile]
HAM-D Response [1]: 74/120 (61.7%) | HAM-D total score, Mean % CFB ± SD [1]: −58.0 ± 25.97% | HAM-D total score, Mean CFB ± SD [1]: −15.7 ± 7.17 | HAM-D Remission [2]: 26/79 (32.9%) | HAM-D Response [2]: 43/79 (54.4%) | HAM-D total score, Mean % CFB ± SD [2]: −53.0 ± 28.53% | HAM-D total score, Mean CFB ± SD [2]: −14.4 ± 7.93 | HAM-D Remission [3]: 13/17 (76.5%) | HAM-D Response [3]: 14/17 (82.4%) | HAM-D total score, Mean % CFB ± SD [3]: −74.8 ± 27.94% | HAM-D total score, Mean CFB ± SD [3]: −19.9 ± 8.10 | HAM-D Response [4]: 138/319 (43.3%) | HAM-D total score, Mean % CFB ± SD [4]: −43.7 ± 25.84% | HAM-D total score, Mean CFB ± SD [4]: −12.6 ± 7.44 | HAM-D Response [5]: 220 (71.4%) and 220/308 (71.4%) | HAM-D total score, Mean % CFB ± SD [5]: −60.6 ± 26.28% | HAM-D total score, Mean CFB ± SD [5]: −17.6 ± 7.77 | HAM-D Response [6]: 184/305 (60.3%) | HAM-D total score, Mean % CFB ± SD [6]: −55.6 ± 28.46% | HAM-D total score, Mean CFB ± SD [6]: −16.2 ± 8.48 | HAM-D Response [7]: 87/170 (51.2%) | HAM-D total score, Mean % CFB ± SD [7]: −49.8 ± 32.15% | HAM-D total score, Mean CFB ± SD [7]: −14.7 ± 9.65 | HAM-D Response [8]: 60/82 (73.2%) | HAM-D total score, Mean % CFB ± SD [8]: −65.6 ± 28.15% | HAM-D total score, Mean CFB ± SD [8]: −19.1 ± 8.11 | HAM-D Remission [9]: 13/82 (15.9%) | HAM-D Response [9]: 43/82 (52.4%) | HAM-D total score, Mean % CFB ± SD [9]: −49.6 ± 21.15% | HAM-D total score, Mean CFB ± SD [9]: −14.0 ± 6.05 | HAM-D Remission [10]: 27 (33.8%) and 27/80 (33.8%) | HAM-D Response [10]: 64 (80.0%) and 64/80 (80.0%) | HAM-D total score, Mean % CFB ± SD [10]: −64.3 ± 20.17% | HAM-D total score, Mean CFB ± SD [10]: −18.2 ± 5.89 | HAM-D Remission [11]: 26/80 (32.5%) | HAM-D Response [11]: 51/80 (63.8%) | HAM-D total score, Mean % CFB ± SD [11]: −58.5 ± 24.24% | HAM-D total score, Mean CFB ± SD [11]: −16.6 ± 7.05 | HAM-D Remission [12]: 18/56 (32.1%) | HAM-D Response [12]: 30/56 (53.6%) | HAM-D total score, Mean % CFB ± SD [12]: −52.9 ± 28.48% | HAM-D total score, Mean CFB ± SD [12]: −15.1 ± 8.23 | HAM-D Remission [13]: 8/10 (80%) | HAM-D Response [13]: 8/10 (80%) | HAM-D total score, Mean % CFB ± SD [13]: −74.2 ± 34.34% | HAM-D total score, Mean CFB ± SD [13]: −21.0 ± 10.12 | HAM-D Remission (baseline HAM-D score ≥26, Study Period 1, Table 3: 30 mg Cohort (N = 327), Table 19 head: Low Dose Cohort (N = 327), Day 15): 113 (36.7%) and 113/308 (36.7%) | HAM-D Remission (baseline HAM-D score ≥26, Study Period 1, Table 19: Low Dose Cohort (N = 327), Day 8): 49/319 (15.4%) | HAM-D Remission (baseline HAM-D score ≥26, Study Period 1, Table 19: Low Dose Cohort (N = 327), Day 28): 94/305 (30.8%) | HAM-D Remission (baseline HAM-D score ≥26, Study Period 1, Table 19: Low Dose Cohort (N = 327), Day 70): 43/170 (25.3%) | HAM-D Remission (baseline HAM-D score ≥26, Study Period 1, Table 19: Low Dose Cohort (N = 327), Day 126): 37/82 (45.1%)
